Among the data in patent US11660311B2, “Cyclic dinucleotides as anticancer agents” (priority 2017, dated 2023) are IC50 and EC50 values, retold here.

For experiment [1], the target named is T1, STING WT: His-TVMV-S-hSTING(155-341)-H232R (Homo sapiens, UniProt Q86WV6, H232R).
T1 construct: STING WT: His-TVMV-S-hSTING(155-341)-H232R
In words: STING HTRF Binding Assay, STING WT. The note with it: 20 nM His-tagged STING cytoplasmic domain, 200 nM fluorescein-labeled cGAMP analog probe, one hour; read-out: HTRF Binding Assays IC50 (μM) STING WT. Here is the method:
(§1) A time resolved FRET-based competition binding assay was used to assess test article binding to STING WT and STING AQ. His-tagged STING cytoplasmic domain (WT or AQ) at a concentration of 20 nM was incubated with 2.5 nM Tb-labeled anti-His antibody, test compound, and fluorescein-labeled cGAMP analog probe (BioLog cat. no. C195) at a concentration of 200 nM (STING WT) or 40 nM (STING AQ) in PBS containing 0.005% Tween-20 and 0.1% BSA for one hour. Fluorescence at 495 nm and 520 nm was measured using an EnVision microplate reader to quantify FRET between Tb-labeled anti-His antibody and fluorescein-labeled probe. Background was defined as the signal obtained in the absence of STING protein, and background subtracted FRET ratios were normalized to the maximum signal obtained in the absence of test compound. These values were converted to a percent inhibition. Percent inhibition was determined for test compounds at 11 concentrations. The IC50, defined as the concentration of competing test compound needed to reduce specific binding of the probe by 50%, was calculated using the 4 parameter logistic equation to fit the data

Experiment [2] relates to IRF pathway in THP1-Dual STING reporter cells. In words: STING THP1 Reporter Assay, IRF pathway (secreted Lucia luciferase). The experiment is classed as cell-based, human. The note with it: 100% = 100 μM cGAMP. The text has this:
(§2) THP1-Dual™ cells were derived from the human THP-1 monocyte cell line by stable integration of two inducible reporter constructs. To this end, THP1-Dual™ cells allow the simultaneous study of the NF-κB pathway, by monitoring the activity of SEAP, and the IRF pathway by assessing the activity of a secreted luciferase (Lucia). Both reporter proteins are readily measurable in the cell culture supernatant when using QUANTI-Blue™, a SEAP detection reagent, and QUANTI-Luc™, a luciferase detection reagent.
(§3) THP1-Dual™ cells induce the activation of NF-κB in response to STING agonists. They also trigger the IRF pathway upon stimulation with STING agonists, such as cGAMP. Here, the THP-1-Dual cells were used to assess STING binders for function on the cellular level.
(§4) Serial dilutions of compounds in DMSO were added to low volume 384 well plates at 100 nl/well using an ECHO acoustic dispenser (Labcyte, model 550) to achieve final starting concentration of 100 μM in cell suspension. […] One column of the plate was reserved for treatment with cGAMP at 100 μM for 100% activation calculation and one column for no treatment (DMSO only) for baseline activation. Plates were then incubated in 37° C. incubator at 5% CO2 for 20 hours.
(§5) In the SEAP assay, 5 μl of 2× QuantiBlue (Invivogen, cat #Rep-qb2) is added to 384 well black plates seeded with THP1 cells and incubated at 37° C. for 2 hours. Plates were read on the Envision (Perkin Elmer) at 620 nm wavelength (OD620). In the luciferase assay, 5 μl of Quantiluc (Invivogen, Rep-qlc2) is added to white 384 well plates seeded with THP1 cells and read at 5 minutes on the Envision (Perkin Elmer) using a luminescence protocol (RLU). For both cell lines, 100% activation was determined by value (RLU) of THP-1 Dual STING cells stimulated with 100 μM cGAMP (Invivogen, cat #TLRL-NACGA23-5).

For experiment [3], the system named is NF-κB pathway in THP1-Dual STING reporter cells. In words: STING THP1 Reporter Assay, NF-κB pathway (SEAP). The experiment is classed as cell-based, human. The following applies: 100% = 100 μM cGAMP.
Excerpt: as §2, §3, §4, §5

The target of experiment [4] is T2, STING AQ: His-TVMV-S-hSTING(155-341)-G230A-R293Q (Homo sapiens, UniProt Q86WV6, G230A/H232R/R293Q).
T2 construct: STING AQ: His-TVMV-S-hSTING(155-341)-G230A-R293Q
T2 sequence (Q86WV6 with tags, fused parts or gaps G230A/H232R/R293Q): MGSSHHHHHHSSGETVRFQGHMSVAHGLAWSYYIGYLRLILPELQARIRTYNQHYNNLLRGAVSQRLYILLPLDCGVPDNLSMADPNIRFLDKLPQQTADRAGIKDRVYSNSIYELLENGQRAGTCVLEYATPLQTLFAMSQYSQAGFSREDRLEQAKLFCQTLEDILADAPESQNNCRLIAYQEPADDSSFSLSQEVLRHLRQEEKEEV
Description: STING HTRF Binding Assay, STING AQ. The following applies: 20 nM His-tagged STING cytoplasmic domain, 40 nM fluorescein-labeled cGAMP analog probe, one hour; read-out: HTRF Binding Assays IC50 (μM) STING AQ. Here is the method: as §1

Where [5] appears, read: Homo sapiens, THP1-Dual, 20 h, THP1-Dual cells, 10% human plasma, 20 hours, luciferase, read-out: THP1 Reporter Assays EC50 (μM) IRF3.
[6] abbreviates: Homo sapiens, THP1-Dual, 20 h, read-out: THP1 Reporter Assays EC50 (μM) NFkB, THP1-Dual cells, 10% human plasma, 20 hours, SEAP.
The mark [7] stands for this setting: read-out: THP1 Reporter Assays EC50 (μM) IRF3, THP1-Dual cells, 10% human plasma, 20 hours, luciferase.
[8] abbreviates: read-out: THP1 Reporter Assays EC50 (μM) NFkB, THP1-Dual cells, 10% human plasma, 20 hours, SEAP.
[9] abbreviates: THP1-Dual cells, 10% human plasma, 20 hours, luciferase, read-out: THP1 Reporter Assays EC50 (μM) IRF3.
[10] abbreviates: THP1-Dual cells, 10% human plasma, 20 hours, SEAP, read-out: THP1 Reporter Assays EC50 (μM) NFkB.
[11] abbreviates: Homo sapiens, THP1-Dual, 20 h, read-out: THP1 Reporter Assays EC50 (μM) IRF3, THP1-Dual cells, 10% human plasma, 20 hours, luciferase.
[12] abbreviates: Homo sapiens, THP1-Dual, 20 h, THP1-Dual cells, 10% human plasma, 20 hours, SEAP, read-out: THP1 Reporter Assays EC50 (μM) NFkB.

Like-named read-outs stand apart in the source and are kept apart here.

T1 sequence (Q86WV6 with tags, fused parts or gaps H232R): as the sequence (Q86WV6 with tags, fused parts or gaps G230A/H232R/R293Q) above, with A99G, Q162R counted along it

Consider `Nc1ncnc2c1ncn2[C@@H]1O[C@@H]2COP(=O)(O)O[C@H]3[C@@H](F)[C@H](n4cnc5c4ncn4ccnc54)O[C@@H]3COP(=O)(O)O[C@H]2[C@H]1O` [Example 20], for which the IC50 in experiment [1] came out at 0.04 µM; in experiment [4] it was 0.01 µM. Moreover, the EC50 in experiment [2] (setting [5]) was determined as 3.71 µM; in experiment [3] (setting [6]), 13.6 µM.

`Nc1ncnc2c1ncn2[C@@H]1O[C@@H]2COP(=O)(S)O[C@H]3[C@@H](F)[C@H](n4cnc5c4ncn4ccnc54)O[C@@H]3COP(=O)(S)O[C@H]2[C@H]1F` (single isomer, unassigned) [Example 21-4]: the IC50 in experiment [1] and in experiment [4] was 0.01 µM in each case. The EC50 in experiment [2] (setting [7]) amounted to 0.28 µM; in experiment [3] (setting [8]), 0.67 µM.

`Nc1ncnc2c1ncn2[C@@H]1O[C@@H]2COP(=O)(S)O[C@H]3[C@@H](O)[C@H](n4nnc5c([N+](=O)[O-])cccc54)O[C@@H]3COP(=O)(O)O[C@H]2[C@H]1F` (single isomer, unassigned) [Example 13-2]: the IC50 in experiment [1] was 5.49 µM; in experiment [4] it was 0.45 µM. The EC50 in experiment [2] (setting [7]) and in experiment [3] (setting [8]) was more than 100 µM each time.

For the compound `Nc1ncnc2c1ncn2[C@@H]1O[C@@H]2COP(=O)(S)O[C@H]3[C@@H](O)[C@H](n4cnc5c(=O)n6ccnc6[nH]c54)O[C@@H]3COP(=O)(S)O[C@H]2[C@H]1F` (single isomer, unassigned) [Example 1-2], the IC50 in experiment [1] amounted to 0.07 µM; in experiment [4] it was 0.01 µM. For the same compound, the figures for the EC50 in experiment [2] (setting [9]) and in experiment [3] (setting [10]) were 2.69 µM and 5.35 µM, respectively.

In the case of `Nc1ncnc2c1ncn2[C@@H]1O[C@@H]2COP(=O)(S)O[C@H]3[C@@H](O)[C@H](n4nnc5c([N+](=O)[O-])cccc54)O[C@@H]3COP(=O)(O)O[C@H]2[C@H]1F` (single isomer, unassigned) [Example 13-1], the IC50 in experiment [1] was 8.45 µM; in experiment [4], 1.44 µM. Also, the EC50 in experiment [2] (setting [11]) and in experiment [3] (setting [6]) was more than 100 µM in each case.

On to `NC(=O)c1cccc2c1nnn2[C@@H]1O[C@@H]2COP(=O)(S)O[C@H]3[C@@H](F)[C@H](n4cnc5c(N)ncnc54)O[C@@H]3COP(=O)(S)O[C@H]2[C@H]1F` (single isomer, unassigned) [Example 4-1], for which the IC50 is more than 100 µM in experiment [1] and 17.8 µM in experiment [4]. Also, the EC50 in experiment [2] (setting [9]) and in experiment [3] (setting [10]) was more than 100 µM throughout.

With `O=P1(O)OC[C@H]2O[C@@H](n3cnc4c3ncn3ccnc43)[C@H](O)[C@@H]2OP(=O)(O)OC[C@H]2O[C@@H](n3cnc4c3ncn3ccnc43)[C@H](O)[C@@H]2O1` [Example 19], the IC50 in experiment [1] worked out at 28.6 µM; in experiment [4], 0.65 µM. Besides, the EC50 in experiment [2] (setting [5]) and in experiment [3] (setting [12]) was more than 100 µM in each case.

Regarding `NC(=O)c1cccc2c1nnn2[C@@H]1O[C@@H]2COP(=O)(O)O[C@H]3[C@@H](F)[C@H](n4cnc5c4ncn4ccnc54)O[C@@H]3COP(=O)(O)O[C@H]2[C@H]1F` [Example 9], the IC50 in experiment [1] stood at 84.1 µM; in experiment [4], 0.42 µM. Further, the EC50 in experiment [2] (setting [5]) and in experiment [3] (setting [6]) was more than 100 µM throughout.

As to `NC(=O)c1cc([C@@H]2O[C@@H]3COP(=O)(S)O[C@H]4[C@@H](F)[C@H](n5cnc6c(N)ncnc65)O[C@@H]4COP(=O)(S)O[C@H]3[C@H]2O)[nH]n1` (single isomer, unassigned) [Example 6-4], the IC50 in experiment [1] came to 3.03 µM; in experiment [4], 0.19 µM. For the same compound, the EC50 in experiment [2] (setting [9]) and in experiment [3] (setting [10]) was more than 100 µM throughout.

In the case of `NC(=O)c1cc([C@@H]2O[C@@H]3COP(=O)(S)O[C@H]4[C@@H](F)[C@H](n5cnc6c(N)ncnc65)O[C@@H]4COP(=O)(S)O[C@H]3[C@H]2O)[nH]n1` (single isomer, unassigned) [Example 6-1], the IC50 was determined as 5.58 µM in experiment [1] and 1.32 µM in experiment [4]. Besides, the EC50 in experiment [2] (setting [5]) and in experiment [3] (setting [12]) was more than 100 µM throughout.

In the case of `Nc1ncnc2c1ncn2[C@@H]1O[C@@H]2COP(=O)(O)O[C@H]3[C@@H](F)[C@H](n4cnc5c4ncn4ccnc54)O[C@@H]3COP(=O)(O)O[C@H]2[C@H]1F` [Example 3], the IC50 in experiment [1] came out at 0.04 µM; in experiment [4], 0.02 µM. Besides, the EC50 came out at 5.76 µM in experiment [2] (setting [5]) and 24.4 µM in experiment [3] (setting [12]).

For the compound `Nc1ncnc2c1ncn2[C@@H]1O[C@@H]2COP(=O)(S)O[C@H]3[C@@H](F)[C@H](n4cnc5c4ncn4ccnc54)O[C@@H]3COP(=O)(S)O[C@H]2[C@H]1F` (single isomer, unassigned) [Example 21-2], the IC50 in experiment [1] is 0.02 µM; in experiment [4] it was 0.01 µM. Also, the EC50 in experiment [2] (setting [7]) came out at 0.13 µM; in experiment [3] (setting [8]) it was 0.56 µM.

For the compound `Nc1nc2c(ncn2[C@@H]2O[C@@H]3COP(=O)(O)O[C@H]4[C@@H](O)[C@H](n5cnc6c5ncn5ccnc65)O[C@@H]4COP(=O)(S)O[C@H]3[C@H]2O)c(=O)[nH]1` (stereo partly shown) [Example 16], the IC50 in experiment [1] worked out at 96 µM; in experiment [4] it was 5.65 µM. The EC50 in experiment [2] (setting [5]) and in experiment [3] (setting [12]) was more than 100 µM in each case.

Take `NC(=O)c1cccc2c1nnn2[C@@H]1O[C@@H]2COP(=O)(O)O[C@H]3[C@@H](F)[C@H](n4cnc5c(N)ncnc54)O[C@@H]3COP(=O)(S)O[C@H]2[C@H]1F` (single isomer, unassigned) [Example 8-2]: the IC50 turned out to be 2.23 µM in experiment [1] and 0.07 µM in experiment [4]. Besides, the EC50 in experiment [2] (setting [9]) and in experiment [3] (setting [10]) was more than 100 µM each time.

Turning to `NC(=O)c1cccc2c1nnn2[C@@H]1O[C@@H]2COP(=O)(O)O[C@H]3[C@@H](F)[C@H](n4cnc5c(N)ncnc54)O[C@@H]3COP(=O)(O)O[C@H]2[C@H]1F` [Example 7, 1-[(1R,6R,8R,9R,10R,15R,17R,18R)-17-(6-amino-9H-purin-9-yl)-9,18-difluoro-3,12-dihydroxy-3,12-dioxo-2,4,7,11,13,16-hexaoxa-3λ^5,12λ^5-diphosphatricyclo[13.3.0.0^6,10]octadecan-8-yl]-1H-1,2,3-benzotriazole-4-carboxamide], the IC50 in experiment [1] is 11.9 µM; in experiment [4], 0.31 µM. Further, the EC50 in experiment [2] (setting [5]) and in experiment [3] (setting [6]) was more than 100 µM in each case.

Consider `Nc1ncnc2c1ncn2[C@@H]1O[C@@H]2COP(O)(=S)O[C@H]3[C@@H](F)[C@H](n4cnc5c4ncn4ncnc54)O[C@@H]3COP(O)(=S)O[C@H]2[C@H]1F` (single isomer, unassigned) [Example 12-1], for which the IC50 in experiment [1] was determined as 0.56 µM; in experiment [4], 0.04 µM. In addition, the EC50 in experiment [2] (setting [11]) turned out to be 8.2 µM; in experiment [3] (setting [12]) it was 65.9 µM.
